# From US8247437B2, “N-hydroxyamide derivatives and use thereof” (Merck Serono SA, priority 2004, dated 2012)
# Read-outs that look alike come from different tables or passages of the source.
# Assays:
# [1] = molecular target: T1, collagenase (MMP-1) (Homo sapiens, UniProt P03956); experiment: MMP-1 enzyme inhibition assay (coumarin-labelled peptide substrate McaPLGLDpaAR); type: biochemical
# T1 sequence (P03956 100-469): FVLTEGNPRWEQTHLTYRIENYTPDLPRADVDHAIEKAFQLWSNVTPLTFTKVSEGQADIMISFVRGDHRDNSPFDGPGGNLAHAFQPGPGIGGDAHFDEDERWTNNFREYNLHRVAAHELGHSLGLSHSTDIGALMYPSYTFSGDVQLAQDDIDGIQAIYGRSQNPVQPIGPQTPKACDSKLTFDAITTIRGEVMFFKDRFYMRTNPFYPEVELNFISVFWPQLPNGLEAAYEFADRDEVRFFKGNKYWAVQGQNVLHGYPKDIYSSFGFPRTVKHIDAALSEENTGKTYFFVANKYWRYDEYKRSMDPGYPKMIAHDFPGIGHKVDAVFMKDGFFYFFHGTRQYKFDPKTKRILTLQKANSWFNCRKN
# Experimental: (§1) Stock solutions were made up as follows: Assay Butter: 100 mM Tris-HCl pH 7.6 is containing 100 mM NaCl, 10 mM CaCl2, and 0.05% Brij 35.
# (§2) Substrate: 0.4 mM McaPLGLDpaAR (from Bachem) (0.437 mg/ml) stock solution in 100% DMSO (stored at −20° C.). Dilute to 8 μM in assay butter.
# (§3) Enzyme: Recombinant human 92 kDa gelatinase (MMP-9; APMA (4-aminophenyl mercuric acetate)-activated if necessary) appropriately diluted in assay butter.
# (§4) Test Compounds were prepared initially as 10 mM compound solution in 100% DMSO, diluted to 1 mM in 100% DMSO, then serially diluted 3-fold in 100% DMSO across columns 1-10 of a 96-well microtitre plate Assay concentration range, 100 μM (column 1) to 5.1 nM (column 10).
# (§5) The assay was performed in a total volume of 100 μL per well in 96-well microfilm plates. Activated enzyme (20 μL) was added to the wells followed by 20 μL of assay butter. Appropriate concentrations of test compounds dissolved in 10 μL of DMSO were then added followed by 50 μL of McaPLGLDpaAR (8 μM, prepared by dilution of DMSO stock in assay butter). For each as say ten concentrations of test compound were examined in duplicate. Control wells lack either enzyme or test compound. The reactions were incubated at 37° C. for 2 hours. The fluorescence at 405 nm was measured immediately with an SLT Fluostar fluorometer (SL T Labinstruments GmbH, Grödig, Austria) using 320 nm excitation, without stopping the reaction.
# (§6) The effect of the test compound was determined from the dose response curve generated by the 10 duplicate concentrations of inhibitor. The IC50 (the concentration of compound required to give a 50% decrease in enzyme activity) was obtained by fitting data to the equation, Y=a+((b−a)/(1+(c/X)^d)). (Y=inhibition achieved for a particular dose; X=the dose in nM; a=minimum y or zero % inhibition; b=maximum y or 100% inhibition; c=is the IC50; d=is the slope). The result was rounded to one significant figure.
# (§7) Compounds of the invention were tested for inhibitory activity against collagenase (MMP-1) in an assay using a coumarin-labelled peptide substrate, (7-methoxycoumarin-4-yl)acetyl-Pro-Leu-Gly-Leu-(3-[2,4-dinitrophenyl]-L-2,3diaminopropionyl)-Ala-Arg-NH2 (Mca PLGLDpaAR) (Knight et al, 1992, above). The protocol for this assay was as described for the MMP-9 assay above.
# [2] = molecular target: T2, gelatinase A (MMP-2) (Homo sapiens, UniProt P08253); experiment: MMP-2 enzyme inhibition assay (coumarin-labelled peptide substrate McaPLGLDpaAR); type: biochemical
# T2 sequence (P08253 110-660): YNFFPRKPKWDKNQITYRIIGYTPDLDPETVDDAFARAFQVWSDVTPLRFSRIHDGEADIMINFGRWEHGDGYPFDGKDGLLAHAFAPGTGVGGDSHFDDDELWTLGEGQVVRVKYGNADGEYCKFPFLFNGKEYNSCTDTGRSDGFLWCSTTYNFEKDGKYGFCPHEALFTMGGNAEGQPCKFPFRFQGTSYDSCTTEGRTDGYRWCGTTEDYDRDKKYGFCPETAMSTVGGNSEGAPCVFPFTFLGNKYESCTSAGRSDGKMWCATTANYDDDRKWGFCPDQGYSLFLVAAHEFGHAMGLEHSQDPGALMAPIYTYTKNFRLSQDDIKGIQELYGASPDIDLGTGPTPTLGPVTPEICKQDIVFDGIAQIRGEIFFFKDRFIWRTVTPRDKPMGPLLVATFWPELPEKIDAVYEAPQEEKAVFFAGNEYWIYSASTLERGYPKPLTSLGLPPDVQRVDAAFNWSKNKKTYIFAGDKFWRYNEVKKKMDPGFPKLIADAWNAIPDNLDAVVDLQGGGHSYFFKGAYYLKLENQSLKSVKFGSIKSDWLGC
# Experimental: as §1, §2, §3, §4, §5, §6
# as §7, with “gelatinase A (MMP-2)” for “collagenase (MMP-1)”
# [3] = molecular target: 92 kDa gelatinase (MMP-9) (Homo sapiens, UniProt P14780); experiment: MMP-9 enzyme inhibition assay (coumarin-labeled peptide substrate McaPLGLDpaAR); type: biochemical
# 92 kDa gelatinase (MMP-9), sequence (P14780 107-707 limits assumed): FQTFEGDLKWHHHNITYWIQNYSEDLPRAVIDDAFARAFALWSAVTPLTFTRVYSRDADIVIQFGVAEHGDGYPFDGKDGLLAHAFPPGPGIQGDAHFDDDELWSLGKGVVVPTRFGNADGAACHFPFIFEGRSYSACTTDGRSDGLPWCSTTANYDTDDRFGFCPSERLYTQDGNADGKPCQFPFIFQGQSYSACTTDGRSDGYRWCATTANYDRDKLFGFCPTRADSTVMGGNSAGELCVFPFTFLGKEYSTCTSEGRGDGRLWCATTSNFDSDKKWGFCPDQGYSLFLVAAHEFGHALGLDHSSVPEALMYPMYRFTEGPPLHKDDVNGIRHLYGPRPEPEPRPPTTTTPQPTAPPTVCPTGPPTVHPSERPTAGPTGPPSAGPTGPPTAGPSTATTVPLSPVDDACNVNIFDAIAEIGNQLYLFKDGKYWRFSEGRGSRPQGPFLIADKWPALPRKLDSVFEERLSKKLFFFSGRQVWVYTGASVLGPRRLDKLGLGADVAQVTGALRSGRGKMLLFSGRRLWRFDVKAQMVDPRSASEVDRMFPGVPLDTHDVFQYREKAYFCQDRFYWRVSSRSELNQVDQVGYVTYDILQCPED
# Experimental: Compounds of the invention were tested for inhibitory activity against 92 kDa gelatinase (MMP-9) in an assay using a coumarin-labeled peptide substrate, (7-methoxycoumarin-4-yl)acetyl-Pro-Leu-Gly-Leu-(3-[2,4-dinitrophenyl]-L-2,3diaminopropionyl)-Ala-Arg-NH2 (McaPLGLDpaAR) (Knight et al, FEBS Lett. 1992; 263-266).
# as §1, §2, §3, §4, §5, §6
# [4] = molecular target: metalloelastase (MMP-12) (Homo sapiens, UniProt P39900); experiment: MMP-12 enzyme inhibition assay (coumarin-labelled peptide substrate McaPLGLDpaAR); type: biochemical
# metalloelastase (MMP-12), sequence (P39900 106-470): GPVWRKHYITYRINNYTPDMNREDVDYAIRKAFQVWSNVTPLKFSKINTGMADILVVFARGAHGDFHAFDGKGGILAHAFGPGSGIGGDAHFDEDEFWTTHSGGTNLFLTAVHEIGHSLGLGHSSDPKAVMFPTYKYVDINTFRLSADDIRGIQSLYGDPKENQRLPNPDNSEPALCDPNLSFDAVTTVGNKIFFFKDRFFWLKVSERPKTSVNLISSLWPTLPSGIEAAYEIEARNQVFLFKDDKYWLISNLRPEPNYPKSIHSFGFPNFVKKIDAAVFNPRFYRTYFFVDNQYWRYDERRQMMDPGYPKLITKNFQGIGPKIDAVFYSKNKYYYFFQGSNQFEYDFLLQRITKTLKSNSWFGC
# Experimental: as §1, §2, §3, §4, §5, §6
# Compounds of the invention were tested for inhibitory activity against metalloelastase (MMP-12) in an assay using a coumarin-labelled peptide substrate, (7-methoxycoumarin-4-yl)acetyl-Pro-Leu-Gly-Leu-(3-[2,4-dinitrophenyl]-L-2,3-diaminopropionyl)-Ala-Arg-NH2 (McaPLGLDpaAR) (Knight et al, 1992, above). The protocol for this assay was as described for the MMP-9 assay above.
# [5] = system: IL-2-induced peritoneal recruitment of lymphocytes; experiment: IL-2-induced peritoneal recruitment of lymphocytes; type: in vivo, C3H/HEN mice; conditions: mice, 15 min prior to IL-2, cells collected 24 h after IL-2
# Experimental: Administration of IL-2 intraperitoneally causes migration of lymphocytes into the intraperitoneal cavity. This is a model for the cellular migration that occurs during inflammation.
# C3H/HEN mice (Elevage Janvier, France) were intraperitoneally injected with IL-2 (Serono Pharmaceutical Research Institute, 20 μg/kg, in saline).
# Compounds of the invention were suspended in 0.5% carboxymethylcellulose (CMC)/0.25% tween-20 and were administered by s.c. or p.o. route (10 ml/kg) 15 min prior to administration of IL-2.
# Twenty-four hours after administration of IL-2, peritoneal white blood cells were collected by 3 successive lavages of the peritoneal cavity with 5 ml phosphate buffered saline (PBS)-1 mM EDTA (+4° C.). The suspension was centrifuged (1700 g×10 min at +4° C.). The resulting pellet was suspended in 1 ml PBS-1 mM EDTA.
# Lymphocytes were identified and counted using a Beckman/Coulter counter.
# The animals were divided into 6 groups (6 mice each group):
# Group 1: (baseline) received 0.5% CMC/0.25% tween-20 (vehicle of compound of the invention) and saline (vehicle of IL-2);
# Group 2: (control IL-2) received 0.5% CMC/0.25% tween-20 and injection of IL-2;
# Group 3: Experimental group (Compound of the invention Dose 1) received a compound of the invention and injection of IL-2;
# Group 4: Experimental group (Compound of the invention Dose 2) received a compound of the invention and injection of IL-2;
# Group 5: Experimental group (Compound of the invention Dose 3) received a compound of the invention and injection of IL-2;
# Group 6: Reference group received reference compound dexamethasone and injection of IL-2.
# Inhibition of lymphocyte recruitment was calculated as follows:
# Where Ly 1=Number of lymphocytes in group 1 (E3/μl), Ly 2=Number of lymphocytes in group 2 (E3/μl), Ly X=Number of lymphocytes in group X (3-5) (E3/μl).
# [6] = dose 1 mg/kg po, Table 4, Formula (VI)
# [7] = Table 1, compounds of Formula (I), read-out: MMP-1 IC50
# [8] = Table 1, compounds of Formula (I), read-out: MMP-2 IC50
# [9] = Table 1, compounds of Formula (I), read-out: MMP-9 IC50
# [10] = Table 1, compounds of Formula (I), read-out: MMP-12 IC50
# [11] = dose 1 mg/kg po, Table 3, Formula (I)
Compound,"IC50 [1, 7] [nM]","IC50 [2, 8] [nM]","IC50 [3, 9] [nM]","IC50 [4, 10] [nM]","% inhibition of IL-2-induced peritoneal recruitment of lymphocytes [5, 11] [%]",other results
"CCOc1ccc(CCC[C@@H](C(=O)N2CCN(CCN3CCOCC3)CC2)[C@H](O)C(=O)NO)cc1 [Example 37, (2S,3R)-6-(4-ethoxyphenyl)-N,2-dihydroxy-3-{[4-(2-morpholin-4-ylethyl)piperazin-1-yl]-carbonyl}hexanamide]",,,,,,"IC50 ([1]; Table 2, compounds of Formula (VI), read-out: MMP-1 IC50): > 5000 nM; IC50 ([2]; Table 2, compounds of Formula (VI), read-out: MMP-2 IC50): 65 nM; IC50 ([3]; Table 2, compounds of Formula (VI), read-out: MMP-9 IC50): 52 nM; IC50 ([4]; Table 2, compounds of Formula (VI), read-out: MMP-12 IC50): 23 nM; % inhibition of IL-2-induced peritoneal recruitment of lymphocytes [5, 6]: 42%"
"CC(C)C[C@H](C(=O)N1CCN(c2ccc(-c3ccccc3)cc2)C[C@H]1C)[C@H](O)C(=O)NO [Example 53, (2S,3S)-3-{[(2R)-4-biphenyl-4-yl-2-methylpiperazin-1-yl]carbonyl}-N,2-dihydroxy-5-methylhexanamide]",> 5000,7.5,7,5,61,
"CCOc1ccc(CCC[C@H](C(=O)N2CCN(c3ccccn3)C[C@@H]2C)[C@H](O)C(=O)NO)cc1 [Example 7, (2S,3S)-6-(4-ethoxyphenyl)-N,2-dihydroxy-3-{[(2S)-2-methyl-4-(2-pyridinyl)piperazinyl]carbonyl}hexanamide]",,,,,46,
"CCOc1ccc(CCC[C@@H](C(=O)N2CCC(Nc3ccccc3)CC2)[C@H](O)C(=O)NO)cc1 [Example 20, (2S,3R)-3-[(4-anilinopiperidin-1-yl)carbonyl]-6(4-ethoxyphenyl)-N,2-dihydroxyhexanamide]",,,,,,"IC50 [1]: > 5000 nM; IC50 [2]: 82 nM; IC50 [3]: 37 nM; IC50 [4]: 29 nM; % inhibition of IL-2-induced peritoneal recruitment of lymphocytes [5, 6]: 38%"
"CC(C)C[C@H](C(=O)N1CC=C(c2ccccc2)CC1)[C@@H](O)C(=O)NO [Example 61, (2R,3S)-N,2-dihydroxy-5-methyl-3-[(4-phenyl-3,6-dihydropyridin-1(2H)-yl)carbonyl]hexanamide]",> 5000,8,48,2,67,
"CC(C)C[C@H](C(=O)N1CCN(c2ccccn2)C[C@H]1C)[C@H](O)C(=O)NO (single isomer, unassigned) [Example 4]",301,4,12,17,39,
"CCOc1ccc(CCCC(C(=O)N2CCN(c3ccccn3)C[C@H]2C)[C@H](O)C(=O)NO)cc1 (mixture of isomers) [Example 6, (2S,3S)-6-(4-ethoxyphenyl)-N,2-dihydroxy-3-{[(2R)-2-methyl-4-pyridin-2-ylpiperazin-1-yl]-carbonyl}hexanamide]",> 5000,8,22,20,46,"% inhibition of IL-2-induced peritoneal recruitment of lymphocytes ([5]; dose 3 mg/kg po, Table 3, Formula (I)): 65%"
